Experimental data from patent US10100058B2, “Fused heterocyclic compounds as CaM kinase inhibitors” (Gilead Sciences, Inc., priority 2016, dated 2018).

These compounds were tested against recombinant CaMKIIδ (Homo sapiens (Human), UniProt Q13557) (assay: CaMKIIδ biochemical assay (HTRF)). Details: 10 pM CaMKIIδ, 110 nM calmodulin, 12 μM ATP, 1 hour; read-out: CAMKIID-HTRF-384V2 (IC50 - nM).
Experimental: CaMKIIδ Biochemical Assay
The biochemical activity of recombinant CaMKIIδ was measured by monitoring the phosphorylation of a target peptide using Homogenous Time Resolved Fluorescence (HTRF) technology from CisBio Bioassays.
An IC50 of 0.13 nM was found for `CCN(CC)[C@@H](C)CNC(=O)c1cc(-c2cnn3ccc(-c4cccs4)nc23)nc(N2CC(F)C2)c1` [Example 153, (S)—N-(2-(diethylamino)propyl)-2-(3-fluoroazetidin-1-yl)-6-(5-(thiophen-2-yl)pyrazolo[1,5-a]pyrimidin-3-yl)isonicotinamide] in this work.
An IC50 of 0.28 nM was found for `CCN(CC)[C@@H](C)CNC(=O)c1cc(-c2cnn3ccc(-c4cccs4)nc23)nc(N2CC(NS(=O)(=O)C3CC3)C2)c1` [Example 154, (S)-2-(3-(cyclopropanesulfonamido)azetidin-1-yl)-N-(2-(diethylamino)propyl)-6-(5-(thiophen-2-yl)pyrazolo[1,5-a]pyrimidin-3-yl)isonicotinamide] in this work.
An IC50 of 0.32 nM was found for `CCN(CC)[C@@H](C)CNC(=O)c1cc(-c2cnn3ccc(-c4cccs4)nc23)nc(N2CCn3ccnc3C2)c1` [Example 155, (S)—N-(2-(diethylamino)propyl)-2-(5,6-dihydroimidazo[1,2-a]pyrazin-7(8H)-yl)-6-(5-(thiophen-2-yl)pyrazolo[1,5-a]pyrimidin-3-yl)isonicotinamide] in this work.
An IC50 of 0.85 nM was found for `CCN(CC)[C@@H](C)CNC(=O)c1cc(-c2cnn3ccc(-c4cccs4)nc23)nc(N2CCC(O)C(F)(F)C2)c1` (stereo partly drawn) [Example 156, N—((S)-2-(diethylamino)propyl)-2-(3,3-difluoro-4-hydroxypiperidin-1-yl)-6-(5-(thiophen-2-yl)pyrazolo[1,5-a]pyrimidin-3-yl)isonicotinamide] in this work.
An IC50 of 0.07 nM was found for `CCN(CC)[C@@H](C)CNC(=O)c1cc(NCCN(C)C)nc(-c2cnn3ccc(-c4cccs4)nc23)c1` [Example 157, (S)—N-(2-(diethylamino)propyl)-2-((2-(dimethylamino)ethyl)amino)-6-(5-(thiophen-2-yl)pyrazolo[1,5-a]pyrimidin-3-yl)isonicotinamide] in this work.
An IC50 of 0.56 nM was found for `CCN(CC)[C@@H](C)CNC(=O)c1cc(NCCN(C)C)nc(-c2cnn3ccc(-c4ccccc4)nc23)c1` [Example 158, (S)—N-(2-(diethylamino)propyl)-2-((2-(dimethylamino)ethyl)amino)-6-(5-phenylpyrazolo[1,5-a]pyrimidin-3-yl)isonicotinamide] in this work.
An IC50 of 84.6 nM was found for `COC1CN(c2cc(C(=O)NCC3(N)CCC3)cc(-c3cnn4ccc(-c5ccccc5)nc34)n2)C1` [Example 159, N-((1-aminocyclobutyl)methyl)-2-(3-methoxyazetidin-1-yl)-6-(5-phenylpyrazolo[1,5-a]pyrimidin-3-yl)isonicotinamide] in this work.
An IC50 of 1.15 nM was found for `CCN(CC)[C@@H](C)CNC(=O)c1cc(-c2cnn3ccc(-c4ccccc4)nc23)nc(N2CC(OC)C2)c1` [Example 160, (S)—N-(2-(diethylamino)propyl)-2-(3-methoxyazetidin-1-yl)-6-(5-phenylpyrazolo[1,5-a]pyrimidin-3-yl)isonicotinamide] in this work.
An IC50 of 105 nM was found for `COC1CN(c2cc(C(=O)NCC34CCCN3CCC4)cc(-c3cnn4ccc(-c5ccccc5)nc34)n2)C1` [Example 161, N-((hexahydro-1H-pyrrolizin-7a-yl)methyl)-2-(3-methoxyazetidin-1-yl)-6-(5-phenylpyrazolo[1,5-a]pyrimidin-3-yl)isonicotinamide] in this work.
An IC50 of 0.18 nM was found for `CCN(CC)[C@@H](C)CNC(=O)c1cc(-c2cnn3ccc(-c4cccs4)nc23)nc(N2CCC(C)(O)CC2)c1` [Example 163, (S)—N-(2-(diethylamino)propyl)-2-(4-hydroxy-4-methylpiperidin-1-yl)-6-(5-(thiophen-2-yl)pyrazolo[1,5-a]pyrimidin-3-yl)isonicotinamide] in this work.
An IC50 of 0.38 nM was found for `CCN(CC)[C@@H](C)CNC(=O)c1cc(NCC2(N3CCCC3)COC2)nc(-c2cnn3ccc(-c4cccs4)nc23)c1` [Example 164, (S)—N-(2-(diethylamino)propyl)-2-(((3-(pyrrolidin-1-yl)oxetan-3-yl)methyl)amino)-6-(5-(thiophen-2-yl)pyrazolo[1,5-a]pyrimidin-3-yl)isonicotinamide] in this work.
An IC50 of 0.13 nM was found for `CCN(CC)[C@@H](C)CNC(=O)c1cc(-c2cnn3ccc(-c4ccsc4)nc23)nc(N2CC(OC)C2)c1` [Example 165, (S)—N-(2-(diethylamino)propyl)-2-(3-methoxyazetidin-1-yl)-6-(5-(thiophen-3-yl)pyrazolo[1,5-a]pyrimidin-3-yl)isonicotinamide] in this work.
An IC50 of 26 nM was found for `CCN(CC)[C@@H](C)CNC(=O)c1cc(-c2cnn3ccc(-c4cncnc4)nc23)nc(N2CC(OC)C2)c1` [Example 166, (S)—N-(2-(diethylamino)propyl)-2-(3-methoxyazetidin-1-yl)-6-(5-(pyrimidin-5-yl)pyrazolo[1,5-a]pyrimidin-3-yl)isonicotinamide] in this work.
An IC50 of 0.16 nM was found for `CCN(CC)[C@@H](C)CNC(=O)c1cc(-c2cnn3ccc(-c4cccs4)nc23)nc(N2CCCS2(=O)=O)c1` [Example 167, (S)—N-(2-(diethylamino)propyl)-2-(1,1-dioxidoisothiazolidin-2-yl)-6-(5-(thiophen-2-yl)pyrazolo[1,5-a]pyrimidin-3-yl)isonicotinamide] in this work.
An IC50 of 18.1 nM was found for `C[C@H](N)CNC(=O)c1cc(-c2cnn3ccc(-c4cccs4)nc23)nc(N2CC(O)C2)c1` [Example 168, (S)—N-(2-aminopropyl)-2-(3-hydroxyazetidin-1-yl)-6-(5-(thiophen-2-yl)pyrazolo[1,5-a]pyrimidin-3-yl)isonicotinamide] in this work.
An IC50 of 9.11 nM was found for `CCN[C@@H](C)CNC(=O)c1cc(-c2cnn3ccc(-c4cccs4)nc23)nc(N2CC(O)C2)c1` [Example 169, (S)—N-(2-(ethylamino)propyl)-2-(3-hydroxyazetidin-1-yl)-6-(5-(thiophen-2-yl)pyrazolo[1,5-a]pyrimidin-3-yl)isonicotinamide] in this work.
An IC50 of 19.9 nM was found for `COC1CN(c2cc(C(=O)NCC3(N)CCC3)cc(-c3cnn4ccc(-c5cccs5)nc34)n2)C1` [Example 170, N-((1-aminocyclobutyl)methyl)-2-(3-methoxyazetidin-1-yl)-6-(5-(thiophen-2-yl)pyrazolo[1,5-a]pyrimidin-3-yl)isonicotinamide] in this work.
An IC50 of 18.8 nM was found for `COC1CN(c2cc(C(=O)NC[C@H](C)N)cc(-c3cnn4ccc(-c5cccs5)nc34)n2)C1` [Example 171, (S)—N-(2-aminopropyl)-2-(3-methoxyazetidin-1-yl)-6-(5-(thiophen-2-yl)pyrazolo[1,5-a]pyrimidin-3-yl)isonicotinamide] in this work.
An IC50 of 85.3 nM was found for `COC1CN(c2cc(C(=O)NC[C@H](C)N)cc(-c3cnn4ccc(-c5ccccc5)nc34)n2)C1` [Example 172, (S)—N-(2-aminopropyl)-2-(3-methoxyazetidin-1-yl)-6-(5-phenylpyrazolo[1,5-a]pyrimidin-3-yl)isonicotinamide] in this work.
An IC50 of 13 nM was found for `CCN[C@@H](C)CNC(=O)c1cc(-c2cnn3ccc(-c4cccs4)nc23)nc(N2CC(OC)C2)c1` [Example 173, (S)—N-(2-(ethylamino)propyl)-2-(3-methoxyazetidin-1-yl)-6-(5-(thiophen-2-yl)pyrazolo[1,5-a]pyrimidin-3-yl)isonicotinamide] in this work.
An IC50 of 35.2 nM was found for `CCN[C@@H](C)CNC(=O)c1cc(-c2cnn3ccc(-c4ccccc4)nc23)nc(N2CC(OC)C2)c1` [Example 174, (S)—N-(2-(ethylamino)propyl)-2-(3-methoxyazetidin-1-yl)-6-(5-phenylpyrazolo[1,5-a]pyrimidin-3-yl)isonicotinamide] in this work.
An IC50 of 0.29 nM was found for `CCN(CC)[C@@H](C)CNC(=O)c1cc(-c2cnn3ccc(-c4ccns4)nc23)nc(N2CC(OC)C2)c1` [Example 176, (S)—N-(2-(diethylamino)propyl)-2-(5-(isothiazol-5-yl)pyrazolo[1,5-a]pyrimidin-3-yl)-6-(3-methoxyazetidin-1-yl)isonicotinamide] in this work.
An IC50 of 0.8 nM was found for `CCN(CC)[C@@H](C)CNC(=O)c1cc(-c2cnn3ccc(-c4cccs4)nc23)nc(N(C)S(C)(=O)=O)c1` [Example 177, (S)—N-(2-(diethylamino)propyl)-2-((N-methylmethyl)sulfonamido)-6-(5-(thiophen-2-yl)pyrazolo[1,5-a]pyrimidin-3-yl)isonicotinamide] in this work.
An IC50 of 1.25 nM was found for `CCN(CC)[C@@H](C)CNC(=O)c1cc(NS(=O)(=O)C(C)C)nc(-c2cnn3ccc(-c4cccs4)nc23)c1` [Example 178, (S)—N-(2-(diethylamino)propyl)-2-((1-methylethyl)sulfonamido)-6-(5-(thiophen-2-yl)pyrazolo[1,5-a]pyrimidin-3-yl)isonicotinamide] in this work.
An IC50 of 0.72 nM was found for `CCN(CC)[C@@H](C)CNC(=O)c1cc(NS(=O)(=O)CC)nc(-c2cnn3ccc(-c4cccs4)nc23)c1` [Example 179, (S)—N-(2-(diethylamino)propyl)-2-(ethylsulfonamido)-6-(5-(thiophen-2-yl)pyrazolo[1,5-a]pyrimidin-3-yl)isonicotinamide] in this work.
An IC50 of 0.47 nM was found for `CCN(CC)[C@@H](C)CNC(=O)c1cc(NS(=O)(=O)C2CC2)nc(-c2cnn3ccc(-c4cccs4)nc23)c1` [Example 180, (S)-2-(cyclopropanesulfonamido)-N-(2-(diethylamino)propyl)-6-(5-(thiophen-2-yl)pyrazolo[1,5-a]pyrimidin-3-yl)isonicotinamide] in this work.
An IC50 of 0.64 nM was found for `CCN(CC)[C@@H](C)CNC(=O)c1cc(NS(C)(=O)=O)nc(-c2cnn3ccc(-c4cccs4)nc23)c1` [Example 181, (S)—N-(2-(diethylamino)propyl)-2-(methylsulfonamido)-6-(5-(thiophen-2-yl)pyrazolo[1,5-a]pyrimidin-3-yl)isonicotinamide] in this work.
An IC50 of 0.16 nM was found for `CCN(CC)[C@@H](C)CNC(=O)c1cc(-c2cnn3ccc(-c4cccs4)nc23)nc(N2CC(NS(=O)(=O)CC)C2)c1` [Example 182, (S)—N-(2-(diethylamino)propyl)-2-(3-(ethylsulfonamido)azetidin-1-yl)-6-(5-(thiophen-2-yl)pyrazolo[1,5-a]pyrimidin-3-yl)isonicotinamide] in this work.
An IC50 of 0.26 nM was found for `CCN(CC)[C@@H](C)CNC(=O)c1cc(-c2cnn3ccc(-c4cccs4)nc23)nc(N2CC(NS(=O)(=O)C(C)C)C2)c1` [Example 183, (S)—N-(2-(diethylamino)propyl)-2-(3-((1-methylethyl)sulfonamido)azetidin-1-yl)-6-(5-(thiophen-2-yl)pyrazolo[1,5-a]pyrimidin-3-yl)isonicotinamide] in this work.
